{
  "source": "paper PMC5775280",
  "about": "“Functional Characterization and Signaling Systems of Corazonin and Red Pigment Concentrating Hormone in the Green Shore Crab, Carcinus maenas” (Frontiers in Neuroscience, 2018)",
  "key": {"[1]": {"biological_target": "T1, C. maenas CRZR (corazonin receptor) (Carcinus maenas, UniProt A0A2L0WQE5)", "T1 sequence (A0A2L0WQE5 1-617)": "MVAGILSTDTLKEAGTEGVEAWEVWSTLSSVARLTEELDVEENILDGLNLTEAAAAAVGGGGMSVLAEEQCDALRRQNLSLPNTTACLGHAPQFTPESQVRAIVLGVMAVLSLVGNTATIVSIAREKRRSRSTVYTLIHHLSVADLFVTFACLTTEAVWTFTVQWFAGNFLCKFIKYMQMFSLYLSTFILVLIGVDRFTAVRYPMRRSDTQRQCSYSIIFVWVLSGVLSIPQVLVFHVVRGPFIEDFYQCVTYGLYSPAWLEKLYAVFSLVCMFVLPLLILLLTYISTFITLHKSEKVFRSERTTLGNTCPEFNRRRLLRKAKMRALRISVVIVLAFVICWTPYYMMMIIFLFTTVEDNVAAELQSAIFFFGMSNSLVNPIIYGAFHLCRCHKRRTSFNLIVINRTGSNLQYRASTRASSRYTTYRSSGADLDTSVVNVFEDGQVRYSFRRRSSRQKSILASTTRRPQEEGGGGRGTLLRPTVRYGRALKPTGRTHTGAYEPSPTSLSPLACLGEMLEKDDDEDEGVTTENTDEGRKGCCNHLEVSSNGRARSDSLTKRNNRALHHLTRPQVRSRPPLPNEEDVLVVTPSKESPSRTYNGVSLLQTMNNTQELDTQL", "test": "Aequorin luminescence Ca2+ mobilization in CHO-K1-Aeq cells transiently expressing CRZR", "format": "cell-based", "procedure": "Chinese hamster ovary (CHO-K1) cells containing stably expressed apoaequorin (Perkin Elmer, Boston, MA) and either Gα16 or Gq subunit (control cells) were cultured in Dulbecco's Modified Eagle Medium (DMEM) F-12 Nutrient Mixture GlutaMax (Gibco®) supplemented with 10% fetal bovine serum (Gibco®). Cells were maintained in vented T75 flasks at 37°C in 5% CO2.\nCells grown in a monolayer to approximately 60% confluency in T75 flasks were transfected with pcDNA3.1 constructs using FugeneHD (Promega) according to the manufacturer's recommendations. Briefly, transfection medium was prepared by combining 800 μl Opti-MEM® (Gibco) with 10 μg vector and 30 μl Fugene HD in a 2 ml polystyrene tube and incubated for 10 min at room temperature. The transfection reagent was added to 5 ml of fresh culture media and the cells incubated overnight at 37°C in 5% CO2. After 24 h, an additional 10 ml of culture media were added to the flasks and the cells returned to 37°C at 5% CO2 for a further overnight incubation.\nOn the day of the assay, cells were detached from the culture flask by incubating for 12 min in 5 ml 0.2% EDTA in PBS. The cells were washed with 10 ml DMEM clear DMEM/F-12 containing L-glutamine, 15 mM HEPES and moved to 50 ml centrifuge tubes. Cells were centrifuged for 5 min at 260 g and resuspended to a concentration of 5 × 10^6 cells ml^−1 in 0.2 μm filtered BSA medium (DMEM/F-12 containing L-glutamine, 15 mM HEPES + 0.1% BSA). Coelenterazine h (Invitrogen, Paisley, UK) was added to a concentration of 5 μM and the cells incubated for 4 h in the dark at room temperature whilst gently rocking. The cells were diluted 10-fold and incubated for a further 60 min before use in the assay. Synthetic peptides (GeneCust, Dudelange, Luxembourg) were reconstituted in 30% acetonitrile, dried in small aliquots by vacuum centrifugation and subsequently redissolved in BSA medium. Fifty microliter aliquots were then dispensed into quadruplicate wells of a white 96-well plate (OptiPlate, PerkinElmer). Cell suspensions were gently stirred and injected in 50 μl aliquots into each well using a Mithras LB 940 microplate reader (Berthold Technologies, Bad-Wildbad, Germany) and light emission (Ca^2+ response) recorded for 30 s. Cells were then lysed by injection of 0.3% Triton-X in BSA medium and light emission recorded for a further 10 s to measure total Ca^2+ response. BSA medium was used for blank measurements (6 replicate wells per plate) and mock transfection with empty vectors carried out for negative controls. Data was analyzed using MikroWin v5.18 (Mikrotek Laborsysteme GmbH) and SigmaPlot v.13 (Systat Software, Inc.). Receptor response was normalized against total Ca^2+ response."}, "[2]": {"system": "red and black epidermal chromatophores, dactyl of the 5th walking leg", "test": "Chromatophore pigment migration bioassay in vivo", "design": "species or system Carcinus maenas", "details": "injection after 40 min dispersion with 5 pmol PDH, 0.1–100 pmol/crab for RPCH or AKH, 100 pmol/crab for CRZ or ACP, scored 5 and 20 min after injection", "procedure": "Pigmentary effector activity of […], Locusta migratoria AKH-I, and ACP were measured in vivo, using small (15-20 mm carapace width) C. maenas. Crabs were firstly adapted to a white background, light intensity 300 lx for 1 h. Pigment dispersion of red and black chromatophores in the […] of the 5th walking leg were microscopically observed and indices of dispersion scored according to Hogben and Slome ([1931]). Red and black chromatophores were firstly fully dispersed by injection of 5 pmol C. maenas pigment dispersing hormone ([…]) in 10 μl saline into the hypobranchial sinus, using hand-drawn glass microcapillaries. Chromatophore dispersion indices were scored at 0, 20, 40 min. Peptides were then injected and chromatophores subsequently scored after 5 and 20 min."}, "[3]": {"test": "Hemolymph glucose levels after peptide injection", "format": "in vivo, Carcinus maenas", "details": "injection 100 pmol, n = 8", "procedure": "Adipokinetic and glucose mobilizing activity of […] and ACP were performed by measurement of triglycerides in hemolymph ([…] et al., [2014]) and glucose (Chung and Webster, [1996]). Hemolymph samples (ca. 100 μl) were taken from crabs injected with each peptide at 0 and 90 min, and subsequently assayed."}, "semi-isolated heart": {"system": "semi-isolated heart", "test": "Cardioactivity on semi-isolated heart preparations", "design": "species or system Carcinus maenas", "details": "superfusion, concentrations up to 10^−6 M, 20°C", "procedure": "Cardioactivity of […], and ACP was performed on semi-isolated heart preparations of C. maenas. Crabs (ca. 65 mm carapace width) were ice-anesthetized and rapidly decerebrated before removing all limbs and the dorsal carapace to expose the heart and pericardial cavity. The heart was connected to a force transducer (MLT0210/A) via a micro fishing hook (size 28) and fine nylon (0.08 mm) monofilament. Connection to a PC with Chart 4.0 was via a Bridge Pod (ML301) and Powerlab 4/20 (AD Instruments Pty Ltd, Castle Hill, NSW, Australia). Transducer gain was set at maximum sensitivity (200 μV). Heart preparations were initially perfused with C. maenas physiological saline (Saver et al., [1999]) at room temperature (20°C). Once a stable heart output was achieved, hearts were firstly perfused with 1 ml saline, followed by increasing concentrations of peptides, applied in 1 ml. Crustacean cardioactive peptide (CCAP) (Bachem, Bubendorf, Switzerland), or proctolin (Sigma, Poole, UK) were positive controls (10^-11-10^-7 M). Test peptides ([…]) were perfused at 10^-8-10^-6 M for approximately 2 min at each concentration."}, "[4]": {"test": "Hemolymph triglyceride levels after peptide injection", "format": "in vivo, Carcinus maenas", "details": "lipid mobilization bioassay"}},
  "note": "Peptide text beside a SMILES is read from it.",
  "data": [
    {"compound": "CC(C)C[C@H](NC(=O)[C@@H]1CCC(=O)N1)C(=O)N[C@@H](CC(N)=O)C(=O)N[C@@H](Cc1ccccc1)C(=O)N[C@@H](CO)C(=O)N1CCC[C@H]1C(=O)NCC(=O)N[C@@H](Cc1c[nH]c2ccccc12)C(N)=O", "note": "[RPCH] (HELM PEPTIDE1{[Glp].L.N.F.S.P.G.W.[am]}$$$$V2.0)", "values": [
      {"measurement": "binding to CRZR at extremely high concentrations", "setting": "[1]; 0.6–20 μM", "result": "some dose-dependent binding"},
      {"measurement": "EC50", "setting": "[1]; CHO-K1-Aeq cells (without Gα16) transiently expressing CRZR, luminescence response normalized to total Ca2+ response, dose response curves, means of n = 4", "result": "> 20", "unit": "µM"},
      {"measurement": "pigment migration (concentration) in red and black epidermal chromatophores", "setting": "[2]", "result": "dose-dependent concentration of pigment in the red (but not the black) chromatophores"},
      {"measurement": "effect of eyestalk removal on the glucose response", "setting": "[3]; eyestalk removal, 90 min", "result": "completely abolished this response"},
      {"measurement": "effect on circulating glucose levels, intact crabs", "setting": "[3]; within 90 min, Student's matched pair t-test P < 0.01", "result": "significantly raised circulating glucose levels"},
      {"measurement": "cardioacceleratory effect on semi-isolated hearts", "setting": "semi-isolated heart", "result": "completely without cardioacceleratory effect"},
      {"measurement": "effect on hemolymph diacylglycerol levels", "setting": "[4]", "result": "completely without effect"}
    ]}
  ]
}
